Where “and” joins values, the source holds several entries; their conditions need not be identical. Equal values may be shown once.
Test: in-vitro planometry/profilometry test of enamel erosion by acidic solutions and beverages
Design: species or system human
Procedure: Test solutions were prepared by dissolving the ingredients in water as described in the Table. For test solutions containing sodium polyphosphate, the average chain length (n) of the polyphosphate polymer used was 17. All solutions were prepared to give a pH of 3.0 and a titratable acidity of 0.5% w/v CAMH (citric acid monohydrate). Where calcium was added, the molar ratio of calcium: citric acid used was about 0.08. The erosive effect of the solutions was evaluated using in-vitro planometry tests in which flat dental enamel sections were exposed to test solutions at a temperature of 37° C. for 4 hours. […] Erosive effect was evaluated by physical measurement of the depth of enamel (in microns) lost during the procedure.
A. Solutions were prepared containing approximately equivalent molar concentrations of phosphate groups dissolved in 0.3% w/v citric acid monohydrate (CAMH), pH 3.4. pH was adjusted by the addition of NaOH as required. […] Additionally sodium polyphosphate n≈4, 7, 28 was from Chemische Fabrik Budenheim, Budenheim, Germany, and sodium polyphosphate n≈12, 21, 25 was from Rhodia Ltd. Widnes, Cheshire, UK. Enamel specimens were placed in the solutions with stirring at 37 C for 4 hours and the amount of enamel lost from the surface during that time measured by profilometry as described previously.
The acidulant employed was 0.3% w/v citric acid monohydrate. Citric acid is one of the most commonly employed food acidulants. Adjustment of pH where required was achieved by the addition of NaOH.

O=C([O-])[O-].[Ca+2] [Ca, calcium carbonate]
4 Hr Enamel Loss (Ca 80 ppm alone, no phosphate salt, no gum, 0.5% w/v CAMH, pH 3.0): 41.1 microns and 80 microns
4 Hr Enamel Loss (Ca 80 ppm alone, no phosphate salt, 0.3% w/v CAMH, pH 3.4): 42.8 microns
4 Hr Enamel Loss (Ca 100 ppm alone, no polyphosphate, 0.3% w/v CAMH, pH 3.2): 31.5 microns
4 Hr Enamel Loss (Ca 200 ppm alone, no polyphosphate, 0.3% w/v CAMH, pH 3.2): 25.2 microns

O=P([O-])([O-])OP(=O)([O-])OP(=O)([O-])[O-].[Na+].[Na+].[Na+].[Na+].[Na+] [Penta-sodium triphosphate]
4 Hr Enamel Loss (phosphate salt 0.61 g/L, Ca 80 ppm, 0.5% w/v CAMH, pH 3.0, listed as Penta sodium triphosphate, triphosphate): 20.09 microns
4 Hr Enamel Loss (phosphate salt 0.61 g/L, Ca 80 ppm, 0.5% w/v CAMH, pH 3.0, listed as sodium tri-phosphate, triphosphate): about 20 microns
4 Hr Enamel Loss (phosphate salt 0.61 g/L, Ca 80 ppm, 0.5% w/v CAMH, pH 3.0, triphosphate): 20.1 microns
4 Hr Enamel Loss (phosphate salt 0.61 g/L, no Ca, 0.3% w/v CAMH, pH 3.4): 29.6 microns

O=P(O)(O)O [Sodium phosphate]
4 Hr Enamel Loss (phosphate salt 0.65 g/L, Ca 80 ppm, 0.5% w/v CAMH, pH 3.0): 33.4 microns and 33.39 microns
4 Hr Enamel Loss (phosphate salt 0.65 g/L, Ca 80 ppm, 0.5% w/v CAMH, pH 3.0, listed as sodium phosphate): about 33 microns
4 Hr Enamel Loss (phosphate salt 0.65 g/L, no Ca, 0.3% w/v CAMH, pH 3.4): 34.05 microns

O=P([O-])([O-])OP(=O)([O-])[O-].[Na+].[Na+].[Na+].[Na+] [Tetra-sodium pyrophosphate]
4 Hr Enamel Loss (phosphate salt 1.08 g/L, Ca 80 ppm, 0.5% w/v CAMH, pH 3.0): 28.6 microns
4 Hr Enamel Loss (phosphate salt 1.08 g/L, Ca 80 ppm, 0.5% w/v CAMH, pH 3.0, listed as Tetra sodium pyrophosphate): 28.63 microns
4 Hr Enamel Loss (phosphate salt 1.08 g/L, Ca 80 ppm, 0.5% w/v CAMH, pH 3.0, listed as sodium pyrophosphate): about 29 microns
4 Hr Enamel Loss (phosphate salt 1.08 g/L, no Ca, 0.3% w/v CAMH, pH 3.4): 34.9 microns

From patent US20040091517A1, “Use of polyphospate as a tooth erosion inhibitors in acidic compositions” (priority 2000, published 2004)
